pIC50: −log10 of the molar value.
Target: hTRPA1 (Homo sapiens (Human), UniProt O75762)
Experiment: Dose response calcium flux assay (FLIPR), ChanTest hTRPA1-CHO stably transfected cell line
Type: cell-based
Conditions: CHO-K1 Tet-On human TRPA1 cells, cinnamaldehyde agonist (final 100 uM)
Experimental: IC50 Determinations of Exemplified Compounds Dose Response Assay: Chan Test hTRPA1-CHO Stably Transfected Cell Line
CHO-K1 Tet-On_HOMSA_TRPA1_Clone_20
Chinese Hamster Ovary cells, inducible expression
• Ham's F-12 with 10% tetracycline-free FBS • 1× penicillin-streptomycin • 1× glutamax • 0.01 mg/ml Blasticidin • 0.40 mg/ml Zeocin • The cell line doubling rate was ˜15 hours. […] Experiments were run at 24 hours post induction. Plating Conditions CHOK1/TRPA1 Cells: • Harvested cells with 0.025% trypsin/EDTA. • Resuspended cells in growth media without selection antibiotics. • Measured cell density and diluted to 2.4×10^5 cells/ml in media containing 1 ug/ml Doxycycline Plate 25 ul/well into 384 well black/clear tissue culture-treated plates. • Incubated overnight at 37° C. Calcium Flux Assay: Day of Assay: Reagents: • Replacement Buffer: Hank's Balanced Salt Solution, 20 mM HEPES along with 0.005% BSA and 2× Probenecid • Dye Loading Buffer: Cal-3 NW Calcium dye was prepared by dissolving the contents of one vial with […] Hank's Balanced Salt Solution containing 20 mM HEPES. • Control compounds for CHOK1/TRPA1 cells: AP-18, stock 10 mM, prepare 3.5× compound dilution in a Compound Buffer (HBSS/20 mM HEPES/0.005% BSA)—final concentration 10 uM. • Preparation of Cinnamaldehyde (agonist addition): FW=132.16 • Specific gravity=1.046 gm/cc • 1.32 gm/1.046 gm/cc=1.26 ml of stock • Add 1.74 ml DMSO=3.3 M stock • Working solution 4.5× (final 100 uM in Compound Buffer: HBSS/20 mM HEPES/0.005% BSA) • Compounds dilutions were prepared from 5 or 10 mM stock (100% DMSO): • Adjustments of volumes and concentrations were made at time of titration to reflect desired final assay concentrations. • Compounds were tested at either 20 μM three folds dilution 11 steps out or 30 μM two folds dilution 11 steps out. • 3 μl of diluted compound were transferred into Weidmann 384-well plate in duplicates side-by-side. • Compound plates were resuspended with 100 ul of HBSS/20 mM HEPES/0.005% BSA buffer (Compound Buffer): • column 1A-H: buffer/DMSO (bk) • column 2A-H: AP-18 (control antagonist for CHOK1 TRPA1 cells) • column 1I-P: ATP (control for CHOK1 teton cells) • column 2 I-P: 2APB (control antagonist for CHOK1/TRPM8 cells). Growth media was removed from the cell plates (20 ul) and 20 ul of the Replacement Buffer was added followed by addition of 25 ul of diluted dye. All three steps were performed using a Plate Washer BioTek 407. The plates were then incubated for 30′ at RT.
After incubation, both the cell and compound plates were brought to the FLIPR and 20 ul of the diluted compounds/antagonist/bk were transferred to the cell plates by the FLIPR. Plates were then incubated for 30′ at room temperature. After 30′ incubation, plates were returned to the FLIPR and 20 ul of 4.5× Cinnamaldehyde was added to the cell plates. During the compound addition as well as agonist addition, fluorescence readings were taken simultaneously from all 384 wells of the cell plate every 1.5 seconds. Five readings were taken to establish a stable baseline, then 20 ul of sample was rapidly (30 ul/sec) and simultaneously added to each well of the cell plate. The fluorescence was continuously monitored before, during and after sample/agonist addition for a total elapsed time of 100 seconds (compound addition) and 120 seconds (agonist addition). Responses (increase in peak fluorescence) in each well following agonist addition was determined. The initial fluorescence reading from each well, prior to ligand stimulation, was used a zero baseline value for the data from that well.

Sequence of hTRPA1 (O75762 whole entry): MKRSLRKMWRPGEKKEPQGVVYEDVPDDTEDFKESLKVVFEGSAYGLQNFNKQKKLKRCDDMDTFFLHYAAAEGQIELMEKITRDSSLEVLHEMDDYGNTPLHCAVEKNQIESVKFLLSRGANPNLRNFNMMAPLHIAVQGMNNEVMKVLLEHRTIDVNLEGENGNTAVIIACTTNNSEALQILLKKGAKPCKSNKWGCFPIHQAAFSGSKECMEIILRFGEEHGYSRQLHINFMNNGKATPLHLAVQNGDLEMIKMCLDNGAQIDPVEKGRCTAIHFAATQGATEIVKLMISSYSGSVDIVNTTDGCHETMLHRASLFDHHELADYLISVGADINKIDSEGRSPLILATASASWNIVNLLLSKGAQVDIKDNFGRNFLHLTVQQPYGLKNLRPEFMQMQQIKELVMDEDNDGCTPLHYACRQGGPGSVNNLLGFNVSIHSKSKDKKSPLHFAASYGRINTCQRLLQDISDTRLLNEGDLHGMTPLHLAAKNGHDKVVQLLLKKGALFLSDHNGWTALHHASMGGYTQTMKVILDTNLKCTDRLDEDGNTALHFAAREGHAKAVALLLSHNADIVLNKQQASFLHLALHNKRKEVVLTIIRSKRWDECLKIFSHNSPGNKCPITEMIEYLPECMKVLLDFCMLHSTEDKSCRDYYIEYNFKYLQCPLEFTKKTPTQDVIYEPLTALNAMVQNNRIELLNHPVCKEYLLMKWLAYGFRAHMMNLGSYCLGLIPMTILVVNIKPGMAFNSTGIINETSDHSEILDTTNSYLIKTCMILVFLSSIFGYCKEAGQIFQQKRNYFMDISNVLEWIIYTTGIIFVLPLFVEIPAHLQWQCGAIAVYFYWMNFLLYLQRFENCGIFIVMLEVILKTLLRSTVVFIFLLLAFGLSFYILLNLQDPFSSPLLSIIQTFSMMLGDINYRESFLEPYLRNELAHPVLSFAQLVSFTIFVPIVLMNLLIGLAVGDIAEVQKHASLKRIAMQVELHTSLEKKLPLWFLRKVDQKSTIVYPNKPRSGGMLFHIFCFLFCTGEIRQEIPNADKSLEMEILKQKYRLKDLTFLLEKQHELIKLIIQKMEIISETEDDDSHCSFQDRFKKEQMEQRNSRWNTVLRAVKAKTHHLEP

SMILES: CN(CC(=O)NCc1cccc(-c2ccc(C(F)(F)F)cc2)c1)S(=O)(=O)c1ccc(F)cc1 [Example 1, 2-[(4-Fluoro-benzenesulfonyl)-methyl-amino]-N-(4′-trifluoromethyl-biphenyl-3-ylmethyl)-acetamide]
- pIC50: 7.09

SMILES: C[C@@H](C(=O)NCc1cccc(-c2ccc(C(F)(F)F)cc2)c1)N(C)S(=O)(=O)c1ccc(F)cc1 [Example 2, (S)-2-[(4-Fluoro-benzenesulfonyl)-methyl-amino]-N-(4′-trifluoromethyl-biphenyl-3-ylmethyl)-propionamide]
- pIC50: 7.46

SMILES: O=C(CNS(=O)(=O)c1ccc(F)cc1)NCc1cccc(-c2ccc(C(F)(F)F)cc2)c1 [Example 3, 2-(4-Fluoro-benzenesulfonylamino)-N-(4′-trifluoromethyl-biphenyl-3-ylmethyl)-acetamide]
- pIC50: 5.97

SMILES: C[C@H](C(=O)NCc1cccc(-c2ccc(C(F)(F)F)cc2)c1)N(C)S(=O)(=O)c1ccc(F)cc1 [Example 4, (R)-2-[(4-Fluoro-benzenesulfonyl)-methyl-amino]-N-(4′-trifluoromethyl-biphenyl-3-ylmethyl)-propionamide]
- pIC50: 5.95

SMILES: CC(C)[C@@H](C(=O)NCc1cccc(-c2ccc(C(F)(F)F)cc2)c1)N(C)S(=O)(=O)c1ccc(F)cc1 [Example 5, (S)-2-[(4-Fluoro-benzenesulfonyl)-methyl-amino]-3-methyl-N-(4′-trifluoromethyl-biphenyl-3-ylmethyl)-butyramide]
- pIC50: 5.79

SMILES: CC(C)[C@H](C(=O)NCc1cccc(-c2ccc(C(F)(F)F)cc2)c1)N(C)S(=O)(=O)c1ccc(F)cc1 [Example 6, (R)-2-[(4-Fluoro-benzenesulfonyl)-methyl-amino]-3-methyl-N-(4′-trifluoromethyl-biphenyl-3-ylmethyl)-butyramide]
- pIC50: 5.95

SMILES: CN(C(C)(C)C(=O)NCc1cccc(-c2ccc(C(F)(F)F)cc2)c1)S(=O)(=O)c1ccc(F)cc1 [Example 7, 2-[(4-Fluoro-benzenesulfonyl)-methyl-amino]-2-methyl-N-(4′-trifluoromethyl-biphenyl-3-ylmethyl)-propionamide]
- pIC50: 6.10

SMILES: CN(CC(=O)NCc1ccc(F)c(-c2ccc(C(F)(F)F)cc2)c1)S(=O)(=O)c1ccc(F)cc1 [Example 8, 2-[(4-Fluoro-benzenesulfonyl)-methyl-amino]-N-(6-fluoro-4′-trifluoromethyl-biphenyl-3-ylmethyl)-acetamide]
- pIC50: 6.82

SMILES: CN(CC(=O)NCc1cccc(-c2ccc(C(F)(F)F)cc2)c1F)S(=O)(=O)c1ccc(F)cc1 [Example 9, 2-[(4-Fluoro-benzenesulfonyl)-methyl-amino]-N-(2-fluoro-4′-trifluoromethyl-biphenyl-3-ylmethyl)-acetamide]
- pIC50: 5.82

SMILES: CN(CC(=O)NCc1ccc(-c2ccc(C(F)(F)F)cc2)cc1)S(=O)(=O)c1ccc(F)cc1 [Example 10, 2-[(4-Fluoro-benzenesulfonyl)-methyl-amino]-N-(4′-trifluoromethyl-biphenyl-4-ylmethyl)-acetamide]
- pIC50: 5.32

SMILES: CN(CC(=O)NCc1cc(F)cc(-c2ccc(C(F)(F)F)cc2)c1)S(=O)(=O)c1ccc(F)cc1 [Example 11, 2-[(4-Fluoro-benzenesulfonyl)-methyl-amino]-N-(5-fluoro-4′-trifluoromethyl-biphenyl-3-ylmethyl)-acetamide]
- pIC50: 6.89

SMILES: CN(CC(=O)NCc1cc(-c2ccc(C(F)(F)F)cc2)ccc1F)S(=O)(=O)c1ccc(F)cc1 [Example 12, 2-[(4-Fluoro-benzenesulfonyl)-methyl-amino]-N-(4-fluoro-4′-trifluoromethyl-biphenyl-3-ylmethyl)-acetamide]
- pIC50: 7.32

SMILES: O=C(CN(CC(F)(F)F)S(=O)(=O)c1ccc(F)cc1)NCc1cccc(-c2ccc(C(F)(F)F)cc2)c1 [Example 13, 2-[(4-fluoro-benzenesulfonyl)-(2,2,2-trifluoro-ethyl)-amino]-N-(4′-trifluoromethyl-biphenyl-3-ylmethyl)-acetamide]
- pIC50: 6.59

SMILES: CCN(CC(=O)NCc1ccc(F)c(-c2ccc(C(F)(F)F)cc2)c1)S(=O)(=O)c1ccc(F)cc1 [Example 14, 2-[Ethyl-(4-fluoro-benzenesulfonyl)-amino]-N-(6-fluoro-4′-trifluoromethyl-biphenyl-3-ylmethyl)-acetamide]
- pIC50: 7.43

SMILES: CCN(CC(=O)NCc1cc(F)cc(-c2ccc(C(F)(F)F)cc2)c1)S(=O)(=O)c1ccc(F)cc1 [Example 15, 2-[Ethyl-(4-fluoro-benzenesulfonyl)-amino]-N-(5-fluoro-4′-trifluoromethyl-biphenyl-3-ylmethyl)-acetamide]
- pIC50: 7.55

SMILES: CCN(CC(=O)NCc1cc(-c2ccc(C(F)(F)F)cc2)ccc1F)S(=O)(=O)c1ccc(F)cc1 [Example 16, 2-[Ethyl-(4-fluoro-benzenesulfonyl)-amino]-N-(4-fluoro-4′-trifluoromethyl-biphenyl-3-ylmethyl)-acetamide]
- pIC50: 7.62

SMILES: CCN(CC(=O)NCc1ccc(-c2ccc(C(F)(F)F)cc2)cc1)S(=O)(=O)c1ccc(F)cc1 [Example 17, 2-[Ethyl-(4-fluoro-benzenesulfonyl)-amino]-N-(4′-trifluoromethyl-biphenyl-4-ylmethyl)-acetamide]
- pIC50: 5.32

SMILES: CCN(CC(=O)NCc1ccc(-c2cccc(C(F)(F)F)c2)cc1)S(=O)(=O)c1ccc(F)cc1 [Example 18, 2-[Ethyl-(4-fluoro-benzenesulfonyl)-amino]-N-(3′-trifluoromethyl-biphenyl-4-ylmethyl)-acetamide]
- pIC50: 5.32

SMILES: O=C(CN(CCO)S(=O)(=O)c1ccc(F)cc1)NCc1cccc(-c2ccc(C(F)(F)F)cc2)c1 [Example 19, 2-[(4-Fluoro-benzenesulfonyl)-(2-hydroxy-ethyl)-amino]-N-(4′-trifluoromethyl-biphenyl-3-ylmethyl)-acetamide]
- pIC50: 7.01

SMILES: CC(O)CN(CC(=O)NCc1cccc(-c2ccc(C(F)(F)F)cc2)c1)S(=O)(=O)c1ccc(F)cc1 (stereo not shown) [Example 20, 2-[(4-Fluoro-benzenesulfonyl)-(2-hydroxy-propyl)-amino]-N-(4′-trifluoromethyl-biphenyl-3-ylmethyl)-acetamide]
- pIC50: 6.80

SMILES: CN(CC(=O)NCc1cc(-c2ccc(C(F)(F)F)cc2)ncn1)S(=O)(=O)c1ccc(F)cc1 [Example 21, 2-[(4-Fluoro-benzenesulfonyl)-methyl-amino]-N-[6-(4-trifluoromethyl-phenyl)-pyrimidin-4-ylmethyl]-acetamide]
- pIC50: 7.01

SMILES: O=C(CN(C1CC1)S(=O)(=O)c1ccc(F)cc1)NCc1cccc(-c2ccc(C(F)(F)F)cc2)c1 [Example 22, 2-[Cyclopropyl-(4-fluoro-benzenesulfonyl)-amino]-N-(4′-trifluoromethyl-biphenyl-3-ylmethyl)-acetamide]
- pIC50: 6.72

SMILES: CCN(CC(=O)NCc1cccc(-c2ccc(C(F)(F)F)cc2)c1)S(=O)(=O)c1ccc(F)cc1 [Example 23, 2-[Ethyl-(4-fluoro-benzenesulfonyl)-amino]-N-(4′-trifluoromethyl-biphenyl-3-ylmethyl)-acetamide]
- pIC50: 7.54

SMILES: O=C(NCc1cccc(-c2ccc(C(F)(F)F)cc2)c1)C(NS(=O)(=O)c1ccc(F)cc1)C1CC1 (stereo not shown) [Example 24, 2-cyclopropyl-2-(4-fluoro-benzenesulfonylamino)-N-(4′-trifluoromethyl-biphenyl-3-ylmethyl)-acetamide]
- pIC50: 5.99

SMILES: CN(CC(=O)NCc1cc(-c2ccc(C(F)(F)F)cc2)ncn1)S(=O)(=O)c1ccc(Cl)s1 [Example 25, 2-[(5-chloro-thiophene-2-sulfonyl)-methyl-amino]-N-[6-(4-trifluoromethyl-phenyl)-pyrimidin-4-ylmethyl]-acetamide]
- pIC50: 7.38
